Experimental findings from the NIST ThermoML archive (doi:10.1016/j.tca.2011.10.030) are described below.

Structures are written as SMILES. ± gives the expanded uncertainty stated by the source.

For data set [1] the following is noted: 101 kPa, Liquid; for viscosity: Capillary tube (Ostwald / Ubbelohde) method; for mass density: Vibrating tube method.
A short description of data set [2]: xn = mol fraction of the nth substance listed. Conditions: 101 kPa, Liquid, x2 = 0; for viscosity: Capillary tube (Ostwald / Ubbelohde) method; for mass density: Vibrating tube method.

The term viscosity denotes the internal friction of a fluid under shear. As usually defined, the mass density is mass per unit of volume. Take `CCCO` [propan-1-ol]: the viscosity in data set [1] (293.15 K) stood at 2.204 ± 0.02 mPa·s; in data set [1] (303.15 K) it was 1.615 ± 0.015 mPa·s; in data set [1] (313.15 K), 1.188 ± 0.011 mPa·s; in data set [1] (323.15 K), 0.8796 ± 0.0084 mPa·s. For the same compound, the mass density in data set [1] (293.15 K) turned out to be 809.62 ± 5 kg/m3; in data set [1] (303.15 K), 801.43 ± 5 kg/m3; in data set [1] (313.15 K) it was 793.09 ± 5 kg/m3; in data set [1] (323.15 K) it was 784.54 ± 5 kg/m3; in data set [1] (333.15 K) it was 775.74 ± 5 kg/m3.
Consider `CCCCCCn1cc[n+](C)c1.F[B-](F)(F)F` [1-hexyl-3-methylimidazolium tetrafluoroborate], for which the viscosity is reported as 232.65 mPa·s in data set [1] (293.15 K); 130.02 mPa·s in data set [1] (303.15 K); 78.24 mPa·s in data set [1] (313.15 K); 50.3 mPa·s in data set [1] (323.15 K); 34.02 mPa·s in data set [1] (333.15 K). Also, the mass density in data set [1] (293.15 K) was 1149.24 ± 5.1 kg/m3; in data set [1] (303.15 K), 1142.48 ± 5.1 kg/m3; in data set [1] (313.15 K), 1135.79 ± 5.1 kg/m3; in data set [1] (323.15 K), 1129.08 ± 5.1 kg/m3; in data set [1] (333.15 K) it was 1122.37 ± 5.1 kg/m3.
Turning to `CCCO` [propan-1-ol] + CCCCCCn1cc[n+](C)c1.F[B-](F)(F)F, the viscosity was found to be 2.204 ± 0.02 mPa·s in data set [2] (293.15 K); 1.615 ± 0.015 mPa·s in data set [2] (303.15 K); 1.188 ± 0.011 mPa·s in data set [2] (313.15 K); 0.8796 ± 0.0084 mPa·s in data set [2] (323.15 K); 0.5985 ± 0.006 mPa·s in data set [2] (333.15 K). Further, the mass density turned out to be 809.62 ± 5 kg/m3 in data set [2] (293.15 K); 801.43 ± 5 kg/m3 in data set [2] (303.15 K); 793.09 ± 5 kg/m3 in data set [2] (313.15 K); 784.54 ± 5 kg/m3 in data set [2] (323.15 K); 775.74 ± 5 kg/m3 in data set [2] (333.15 K).
